Molecular target: VEGF receptor 2 kinase (VEGFR2, KDR/Flk-1) (Homo sapiens, UniProt P35968)
Experiment: in vitro kinase assay
Type: biochemical

Sequence of VEGF receptor 2 kinase (VEGFR2, KDR/Flk-1) (P35968 20-1356): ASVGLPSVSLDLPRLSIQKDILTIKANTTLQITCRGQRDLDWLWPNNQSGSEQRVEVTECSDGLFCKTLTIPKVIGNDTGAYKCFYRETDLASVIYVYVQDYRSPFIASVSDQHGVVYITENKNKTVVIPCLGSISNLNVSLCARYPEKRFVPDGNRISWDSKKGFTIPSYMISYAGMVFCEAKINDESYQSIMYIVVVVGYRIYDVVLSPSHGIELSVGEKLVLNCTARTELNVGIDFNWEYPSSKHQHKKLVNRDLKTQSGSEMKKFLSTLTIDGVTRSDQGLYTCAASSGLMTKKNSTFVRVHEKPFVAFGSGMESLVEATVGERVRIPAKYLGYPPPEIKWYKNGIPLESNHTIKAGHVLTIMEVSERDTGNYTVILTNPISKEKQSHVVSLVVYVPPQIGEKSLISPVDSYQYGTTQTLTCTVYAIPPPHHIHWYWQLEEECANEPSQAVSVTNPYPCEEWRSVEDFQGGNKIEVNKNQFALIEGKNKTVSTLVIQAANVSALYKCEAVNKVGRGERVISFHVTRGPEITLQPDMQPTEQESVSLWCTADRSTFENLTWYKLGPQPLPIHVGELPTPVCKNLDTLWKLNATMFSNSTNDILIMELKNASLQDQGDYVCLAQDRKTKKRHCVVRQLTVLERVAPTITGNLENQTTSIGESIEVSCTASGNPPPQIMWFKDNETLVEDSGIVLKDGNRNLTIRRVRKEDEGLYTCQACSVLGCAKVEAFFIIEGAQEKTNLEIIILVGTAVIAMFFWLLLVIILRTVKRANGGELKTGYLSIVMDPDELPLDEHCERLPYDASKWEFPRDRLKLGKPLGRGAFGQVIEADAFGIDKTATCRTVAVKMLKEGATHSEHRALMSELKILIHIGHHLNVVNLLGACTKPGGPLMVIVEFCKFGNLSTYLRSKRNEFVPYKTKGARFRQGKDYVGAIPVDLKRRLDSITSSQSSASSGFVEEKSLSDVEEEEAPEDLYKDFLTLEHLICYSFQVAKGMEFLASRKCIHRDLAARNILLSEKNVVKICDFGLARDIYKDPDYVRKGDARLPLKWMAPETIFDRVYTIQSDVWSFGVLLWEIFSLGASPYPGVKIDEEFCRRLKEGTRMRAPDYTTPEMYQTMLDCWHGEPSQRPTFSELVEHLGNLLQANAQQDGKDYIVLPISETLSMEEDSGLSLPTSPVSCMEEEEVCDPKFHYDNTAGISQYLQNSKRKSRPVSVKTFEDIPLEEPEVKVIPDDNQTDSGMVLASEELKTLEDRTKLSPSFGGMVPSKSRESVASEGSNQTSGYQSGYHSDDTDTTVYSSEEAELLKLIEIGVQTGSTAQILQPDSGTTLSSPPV

- IC50: 1680 nM
Structure (SMILES): CC(=O)O[C@@H]1CC[C@@]2(C)[C@@H](CC[C@]3(C)[C@@H]2C(=O)C=C2[C@@H]4[C@@H](C)[C@H](C)CC[C@]4(C)CC[C@]23C)[C@@]1(C)C(=O)O [AKBA]

From PMC2724674 (Cancer research, 2009)
